From patent publication US20080021026A1, “BENZOTHIOPHENE INHIBITORS OF RHO KINASE” (priority 2006, published 2008)

target: T1, recombinant N-terminal GST-tagged human Rho kinase 2 (ROCK2, amino acids 1-552) (Homo sapiens, UniProt O75116); test: In vitro Rho kinase assay (luciferase-based ATP consumption), ROCK2; format: biochemical; conditions: recombinant GST-tagged human ROCK2, luciferase-based ATP consumption; read-out: ROCK2 IC50
T1 construct: ROCK2, amino acids 1-552; purchased Invitrogen Inc. PV3759
In short: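 Luciferase-based luminescence of leftover ATP after 2 h at 30 °C, where inhibition raises signal, reports activity of GST-tagged ROCK2 (aa 1-552) at 0.82 μg/ml. Conditions: S6 peptide 100 μg/ml, […], pH 7.5 Tris buffer. Results given as percent of H-1152P control activity.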

T1 sequence (O75116 1-552): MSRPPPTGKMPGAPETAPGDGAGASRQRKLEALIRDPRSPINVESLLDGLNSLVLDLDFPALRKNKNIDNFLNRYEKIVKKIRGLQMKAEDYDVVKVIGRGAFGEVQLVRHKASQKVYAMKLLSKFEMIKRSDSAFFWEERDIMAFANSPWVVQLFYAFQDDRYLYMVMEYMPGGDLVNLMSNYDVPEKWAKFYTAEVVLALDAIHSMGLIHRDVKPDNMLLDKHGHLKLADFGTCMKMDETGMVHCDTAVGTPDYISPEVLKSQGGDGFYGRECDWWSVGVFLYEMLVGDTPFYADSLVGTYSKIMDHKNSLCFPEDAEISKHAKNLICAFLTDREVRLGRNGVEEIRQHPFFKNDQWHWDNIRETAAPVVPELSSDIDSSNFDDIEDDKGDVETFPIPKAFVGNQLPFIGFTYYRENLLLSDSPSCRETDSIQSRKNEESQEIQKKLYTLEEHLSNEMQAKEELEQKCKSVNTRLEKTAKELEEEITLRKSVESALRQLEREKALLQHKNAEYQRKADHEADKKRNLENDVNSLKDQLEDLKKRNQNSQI

Compound | IC50 [µM]
Cc1c(-c2ccnc(N)n2)sc2ccc(C(=O)NC(CO)C(C)C)cc12 (centres unmarked) [Example 362, CC(C)C(CO)NC(═O)c1ccc2sc(c(C)c2c1)-c3ccnc(N)n3] | < 5
COc1cccc(CNC(=O)c2ccc3sc(-c4ccnc(N)n4)c(C)c3c2)c1 [Example 404, COc1cccc(CNC(═O)c2ccc3sc(c(C)c3c2)-c4ccnc(N)n4)c1] | < 5
Cc1c(-c2ccnc(N)n2)sc2ccc(C(=O)N3CCN(c4ccccc4)CC3)cc12 [Example 513, Cc1c(sc2ccc(cc12)C(═O)N3CCN(CC3)c4ccccc4)-c5ccnc(N)n5] | < 5
Cc1c(-c2ccnc(N)n2)sc2ccc(C(=O)NC(C)CCCC(C)C)cc12 (centres unmarked) [Example 388, CC(C)CCCC(C)NC(═O)c1ccc2sc(c(C)c2c1)-c3ccnc(N)n3] | > 5
Cc1c(-c2ccnc(N)n2)sc2ccc(C(=O)N3CC(C)CC(C)C3)cc12 (centres unmarked) [Example 481, CC1CC(C)CN(C1)C(═O)c2ccc3sc(c(C)c3c2)-c4ccnc(N)n4] | < 5
Cc1c(-c2ccnc(N)n2)sc2ccc(C(=O)NCCCc3ccccc3)cc12 [Example 397, Cc1c(sc2ccc(cc12)C(═O)NCCCc3ccccc3)-c4ccnc(N)n4] | < 5
Cc1c(-c2ccnc(N)n2)sc2ccc(C(=O)NCc3ccccn3)cc12 [Example 365, Cc1c(sc2ccc(cc12)C(═O)NCc3ccccn3)-c4ccnc(N)n4] | < 5
Cc1c(-c2ccnc(N)n2)sc2ccc(C(=O)N(C)CCO)cc12 [Example 464, CN(CCO)C(═O)c1ccc2sc(c(C)c2c1)-c3ccnc(N)n3] | < 5
Cc1c(-c2ccnc(N)n2)sc2ccc(C(=O)N(C)CC(C)C)cc12 [Example 467, CC(C)CN(C)C(═O)c1ccc2sc(c(C)c2c1)-c3ccnc(N)n3] | < 5
Cc1c(-c2ccnc(N)n2)sc2ccc(C(=O)N3CCN(c4ccc(O)cc4)CC3)cc12 [Example 523, Cc1c(sc2ccc(cc12)C(═O)N3CCN(CC3)c4ccc(O)cc4)-c5ccnc(N)n5] | < 5
Cc1c(-c2ccnc(N)n2)sc2ccc(C(=O)NCCN(C)C)cc12 [Example 351, CN(C)CCNC(═O)c1ccc2sc(c(C)c2c1)-c3ccnc(N)n3] | < 5
Cc1c(-c2ccnc(N)n2)sc2ccc(C(=O)N(C)C)cc12 [Example 459, CN(C)C(═O)c1ccc2sc(c(C)c2c1)-c3ccnc(N)n3] | < 5
Cc1c(-c2ccnc(N)n2)sc2ccc(C(=O)NCCCN3CCOCC3)cc12 [Example 415, Cc1c(sc2ccc(cc12)C(═O)NCCCN3CCOCC3)-c4ccnc(N)n4] | < 5
C#CCN(C)C(=O)c1ccc2sc(-c3ccnc(N)n3)c(C)c2c1 [Example 461, CN(CC#C)C(═O)c1ccc2sc(c(C)c2c1)-c3ccnc(N)n3] | < 5
Cc1c(-c2ccnc(N)n2)sc2ccc(C(=O)N3CCN(c4ccc(F)cc4F)CC3)cc12 [Example 546, Cc1c(sc2ccc(cc12)C(═O)N3CCN(CC3)c4ccc(F)cc4F)-c5ccnc(N)n5] | > 5
Cc1cccc(N2CCN(C(=O)c3ccc4sc(-c5ccnc(N)n5)c(C)c4c3)CC2C)c1 (centres unmarked) [Example 535, CC1CN(CCN1c2cccc(C)c2)C(═O)c3ccc4sc(c(C)c4c3)-c5ccnc(N)n5] | > 5
CCN(C)C(=O)c1ccc2sc(-c3ccnc(N)n3)c(C)c2c1 [Example 460, CCN(C)C(═O)c1ccc2sc(c(C)c2c1)-c3ccnc(N)n3] | < 5
Cc1c(-c2ccnc(N)n2)sc2ccc(C(=O)NCCC3CCCN3C)cc12 (centres unmarked) [Example 386, CN1CCCC1CCNC(═O)c2ccc3sc(c(C)c3c2)-c4ccnc(N)n4] | < 5
Cc1c(-c2ccnc(N)n2)sc2ccc(C(=O)NC(C)Cc3ccncc3)cc12 (centres unmarked) [Example 399, CC(Cc1ccncc1)NC(═O)c2ccc3sc(c(C)c3c2)-c4ccnc(N)n4] | < 5

Compound | IC50 [µM]
Cc1c(-c2ccnc(N)n2)sc2ccc(C(=O)NCCc3ccc(O)cc3)cc12 [Example 400, Cc1c(sc2ccc(cc12)C(═O)NCCc3ccc(O)cc3)-c4ccnc(N)n4] | < 5
Cc1c(-c2ccnc(N)n2)sc2ccc(C(=O)N(C)CC(O)c3ccccc3)cc12 (centres unmarked) [Example 507, CN(CC(O)c1ccccc1)C(═O)c2ccc3sc(c(C)c3c2)-c4ccnc(N)n4] | < 5
COc1cccc(CCNC(=O)c2ccc3sc(-c4ccnc(N)n4)c(C)c3c2)c1 [Example 421, COc1cccc(CCNC(═O)c2ccc3sc(c(C)c3c2)-c4ccnc(N)n4)c1] | < 5
Cc1cnc(CNC(=O)c2ccc3sc(-c4ccnc(N)n4)c(C)c3c2)cn1 [Example 381, Cc1cnc(CNC(═O)c2ccc3sc(c(C)c3c2)-c4ccnc(N)n4)cn1] | < 5
Cc1c(-c2ccnc(N)n2)sc2ccc(C(=O)NCC#N)cc12 [Example 332, Cc1c(sc2ccc(cc12)C(═O)NCC#N)-c3ccnc(N)n3] | < 5
Cc1c(-c2ccnc(N)n2)sc2ccc(C(=O)NCC3CCCO3)cc12 (centres unmarked) [Example 357, Cc1c(sc2ccc(cc12)C(═O)NCC3CCCO3)-c4ccnc(N)n4] | < 5
Cc1c(-c2ccnc(N)n2)sc2ccc(C(=O)NCc3ccc(F)cc3F)cc12 [Example 412, Cc1c(sc2ccc(cc12)C(═O)NCc3ccc(F)cc3F)-c4ccnc(N)n4] | < 5
CCN(C(=O)c1ccc2sc(-c3ccnc(N)n3)c(C)c2c1)C(Cc1ccccc1)c1ccco1 (centres unmarked) [Example 560, CCN(C(Cc1ccccc1)c2ccco2)C(═O)c3ccc4sc(c(C)c4c3)-c5ccnc(N)n5] | < 5
Cc1c(-c2ccnc(N)n2)sc2ccc(C(=O)N3CCN(CC4CCCCC4)CC3)cc12 [Example 527, Cc1c(sc2ccc(cc12)C(═O)N3CCN(CC3)CC4CCCCC4)-c5ccnc(N)n5] | > 5
Cc1c(-c2ccnc(N)n2)sc2ccc(C(=O)N(CCC#N)Cc3cccnc3)cc12 [Example 512, Cc1c(sc2ccc(cc12)C(═O)N(CCC#N)Cc3cccnc3)-c4ccnc(N)n4] | < 5
Cc1c(-c2ccnc(N)n2)sc2ccc(C(=O)NCCOc3ccccc3)cc12 [Example 401, Cc1c(sc2ccc(cc12)C(═O)NCCOc3ccccc3)-c4ccnc(N)n4] | < 5
Cc1c(-c2ccnc(N)n2)sc2ccc(C(=O)N(C)C[C@H](O)c3ccc(O)c(O)c3)cc12 [Example 528, CN(C[C@H](O)c1ccc(O)c(O)c1)C(═O)c2ccc3sc(c(C)c3c2)-c4ccnc(N)n4] | < 5
CCCCN(C)C(=O)c1ccc2sc(-c3ccnc(N)n3)c(C)c2c1 [Example 469, CCCCN(C)C(═O)c1ccc2sc(c(C)c2c1)-c3ccnc(N)n3] | < 5
Cc1ccc([C@@H](C)NC(=O)c2ccc3sc(-c4ccnc(N)n4)c(C)c3c2)cc1 [Example 395, C[C@@H](NC(═O)c1ccc2sc(c(C)c2c1)-c3ccnc(N)n3)c4ccc(C)cc4] | > 5
C#CCNC(=O)c1ccc2sc(-c3ccnc(N)n3)c(C)c2c1 [Example 331, Cc1c(sc2ccc(cc12)C(═O)NCC#C)-c3ccnc(N)n3] | < 5
CCN(CC)C(=O)c1ccc2sc(-c3ccnc(N)n3)c(C)c2c1 [Example 462, CCN(CC)C(═O)c1ccc2sc(c(C)c2c1)-c3ccnc(N)n3] | < 5
Cc1c(-c2ccnc(N)n2)sc2ccc(C(=O)NCCc3c[nH]c4ccccc34)cc12 [Example 435, Cc1c(sc2ccc(cc12)C(═O)NCCc3c[nH]c4ccccc34)-c5ccnc(N)n5] | < 5
Cc1c(-c2ccnc(N)n2)sc2ccc(C(=O)NC3CCCCC3)cc12 [Example 356, Cc1c(sc2ccc(cc12)C(═O)NC3CCCCC3)-c4ccnc(N)n4] | > 5
Cc1c(-c2ccnc(N)n2)sc2ccc(C(=O)NCC(C)c3ccccc3)cc12 (centres unmarked) [Example 396, CC(CNC(═O)c1ccc2sc(c(C)c2c1)-c3ccnc(N)n3)c4ccccc4] | < 5
